Measured values from patent US20210349097A1, “BIOMARKERS FOR A COMBINATION THERAPY COMPRISING LENVATINIB AND EVEROLIMUS” (Eisai R&D Management Co., Ltd., priority 2018, published 2021).

Columns and labels:
Assay type in all cases: in vivo, human
[1] = system: metastatic renal cell carcinoma (RCC); experiment: Phase 2 study in metastatic RCC after prior VEGF-targeted therapy: progression free survival (PFS) by baseline serum biomarker / composite biomarker score
Experimental: (§1) A Phase 2 study for lenvatinib was performed in patients with metastatic renal cell carcinoma (RCC) following a VEGF-targeted therapy. Patients having metastatic renal cell carcinoma after a prior VEGF-targeted therapy received lenvatinib mesylate (“lenvatinib”), everolimus, or the combination thereof until disease progression or development of unmanageable toxicities. A total of 153 subjects were randomized into 3 treatment arms to receive:
(§2) 1) 18 mg/day lenvatinib (as lenvatinib free base; the same shall apply hereinafter)+5 mg/day everolimus (Arm A [LEN/EVE treatment arm], N=51),
(§3) 2) lenvatinib 24 mg/day (Arm B [LEN treatment arm], N=52), or
(§4) 3) everolimus 10 mg/day (Arm C [EVE treatment arm], N=50).
(§5) Each Cycle consisted of 4 weeks (28 days)
(§6) Blood samples for biomarker assessments were collected from subjects in all 3 treatment arms (LEN/EVE, N=49; LEN, N=51; EVE, N=47; Total, N=147) at Cycle 1 Day 1(pre-treatment). In samples from 145 subjects (94.8% of all Intention to Treat [ITT] population; LEN/EVE, N=49; LEN, N=50; EVE, N=46), 40 candidate biomarkers shown in Table 1 were assayed using 19 preconfigured CustomMAP immunoassay panels and measured by a multiplex flow cytometry-based platform by the manufacturer (Multi-Analyte Profile (MAP)) at a Myriad RBM (Austin, Tex., USA).
For baseline levels of each serum biomarker, correlation analyses with PFS were performed using univariate Cox regression in each of the 3 arms. Hazard ratio (HR) for biomarkers with continuous values was calculated as a ratio of hazards between measured values with one standard deviation (HR per standard deviation). Baseline serum IL-18BP levels were associated with PFS in the LEN/EVE arm (Table 2). In the following tables, FDR refers to False Discovery Rate, MST refers to Median Survival Time and CI refers to Confidence Interval.
For IL-18BP, dichotomized analysis was performed to correlate baseline serum biomarker levels in subjects with low and high levels with PFS in the 3 arms. The cutoff points were median, first tertile, second tertile, first quartile or third quartile. Association between the groups and PFS was explored using univariate Cox regression and the log-rank test with each of the selected cutoff points. At the second tertile cutoff point, median PFS for the high IL-18BP group (5.6 months) was shorter than that for the low group (17.5 months) in the LEN/EVE arm (Table 3).
(§7) For each biomarker integrated into the CBS, a value of 1 was assigned if the respective baseline biomarker level fell within the range determined to associate with longer survival in the single biomarker cutoff analysis; a value of 0 was assigned if the respective baseline biomarker level was categorized in the range associated with shorter survival. The sum of the individual values (0 vs. 1 for each of the 5 biomarkers) was computed as a CBS for each subject (range 0-5). Patients were then dichotomized per CBS as low and high groups (0 vs. 1-5, 0-1 vs. 2-5, 0-2 vs. 3-5, 0-3 vs. 4-5, and 0-4 vs. 5). Associations between the groups and PFS were explored using univariate Cox regression and the log-rank test with each of the selected dichotomization points in each treatment arm. Interaction P values were estimated by multivariate Cox regression analysis with treatment arm, baseline level and PFS. Associations between the groups and objective response rate (ORR) were also explored using Fisher's exact test.
(§8) For each biomarker integrated into the CBS, a value of 1 was assigned if the respective baseline biomarker level fell within the range determined to associate with longer survival in the single biomarker cutoff analysis; a value of 0 was assigned if the respective baseline biomarker level was categorized in the range associated with shorter survival. The sum of the individual values (0 vs. 1 for each of the 2 biomarkers) was computed as a CBS for each subject (range 0-2). […]

[2] = system: metastatic renal cell carcinoma (RCC); experiment: Phase 2 study in metastatic RCC after prior VEGF-targeted therapy: overall survival (OS) by baseline serum biomarker / composite biomarker score
Experimental: as §1, §2, §3, §4, §5, §6
For baseline levels of each serum biomarker, correlation analyses with OS were performed using univariate Cox regression in each of the 3 arms. Hazard ratio (HR) for biomarkers with continuous values was calculated as a ratio of hazards between measured values with one standard deviation (HR per standard deviation). Baseline serum FGF-21, ICAM-1, and M-CSF levels were associated with OS in the LEN/EVE arm (Table 4).
For FGF-21, ICAM-1, and M-CSF, dichotomized analyses were performed to correlate baseline serum biomarker levels in subjects with low and high levels with OS in the 3 arms using univariate Cox regression and the log-rank test at median cutoff point. Low baseline levels of FGF-21, ICAM-1, and M-CSF were associated with longer OS in the LEN/EVE arm (Table 5).
as §7, with “the range previously determined to” for “the range determined to”, “longer survival on single biomarker” for “longer survival in the single biomarker”, “subject (range 0-5; high=favorable survival). Patients were” for “subject (range 0-5). Patients were”, “groups and OS were explored” for “groups and PFS were explored”, “level and OS. Associations between” for “level and PFS. Associations between”
as §7, with “2” for “5”, “0-2).” for “0-5).”, “1-2 and” for “1-5,”, “2).” for “2-5, 0-2 vs. 3-5, 0-3 vs. 4-5, and 0-4 vs. 5).”, “OS” for “PFS”, “Interaction P values were estimated by multivariate Cox regression analysis with treatment arm, baseline level and PFS. Associations between the groups and objective response rate (ORR) were also explored using Fisher's exact test.” left out

[3] = system: metastatic renal cell carcinoma (RCC); experiment: Phase 2 study in metastatic RCC after prior VEGF-targeted therapy: objective response rate (ORR) by composite biomarker score
Experimental: as §1, §2, §3, §4, §5, §6, §7
as §7, with “the range previously determined to” for “the range determined to”, “longer survival on single biomarker” for “longer survival in the single biomarker”, “subject (range 0-5; high=favorable survival). Patients were” for “subject (range 0-5). Patients were”, “groups and OS were explored” for “groups and PFS were explored”, “level and OS. Associations between” for “level and PFS. Associations between”
as §8

[4] = 5-marker CBS (HGF, MIG, IL-18BP, IL-18, ANG-2)
[5] = 5-marker CBS (TIMP-1, M-CSF, IL-18BP, ANG-2, VEGF-A)

Which “mPFS, CBS High (1-2)” value ([1]; 2-marker CBS (IL-18BP, ANG-2)) does the source give for `CO[C@H]1C[C@@H]2CC[C@@H](C)[C@@](O)(O2)C(=O)C(=O)N2CCCC[C@H]2C(=O)O[C@H]([C@H](C)C[C@@H]2CC[C@@H](OCCO)[C@H](OC)C2)CC(=O)[C@H](C)/C=C(\C)[C@@H](O)[C@@H](OC)C(=O)[C@H](C)C[C@H](C)/C=C/C=C/C=C/1C` [EVE, (1R,9S,12S,15R,16E,18R,19R,21R,23S,24E,26E,28E,30S,32S,35R)-1,18-dihydroxy-12-{(1R)-2-[(1S,3R,4R)-4-(2-hydroxyethoxy)-3-methoxycyclohexyl]-1-methylethyl}-19,30-dimethoxy-15,17,21,23,29,35-hexamethyl-11,36-dioxa-4-aza-tricyclo[30.3.1.0^4,9]hexatriaconta-16,24,26,28-tetraene-2,3,10,14,20-pentaone] here?
Its value is 5.5 mo.

And the “mPFS, CBS Low (0)” value ([1]; 2-marker CBS (IL-18BP, ANG-2))?
Its value is 3.0 mo.

And the “mPFS, high CBS score (1-2)” value ([1]; 2-marker CBS (IL-18BP, ANG-2))?
The value was 5.5 months.

And the “mPFS, CBS High (3-5)” value [1, 4]?
The value was 3.6 mo.

What about the “mPFS, CBS Low (0-2)” value [1, 4] of the same molecule?
Its value is 5.5 mo.

What about the “mPFS, high CBS score (3-5)” value [1, 4] of the same molecule?
The value was 3.6 months.

And the “MST (median PFS), IL-18BP High Group” value ([1]; baseline serum IL-18BP high, cutoff quantile 0.67 (second tertile))?
The value was 3.5 months.

What about the “MST (median PFS), IL-18BP Low Group” value ([1]; baseline serum IL-18BP low, cutoff quantile 0.67 (second tertile)) of the same molecule?
Its value is 5.5 months.

And the “HR (95% CI) PFS, IL-18BP low and high groups” value ([1]; cutoff quantile 0.67 (second tertile), univariate Cox regression)?
The value was 1.194.

What about the “HR (95% CI), baseline IL-18BP with PFS” value ([1]; univariate Cox regression, HR per standard deviation of baseline serum IL-18BP) of the same molecule?
The value was 1.207.

And the “HR OS, high CBS (1-2) vs low CBS (0) within arm” value ([2]; 2-marker CBS (IL-18BP, ANG-2))?
The value was 0.461.

What about the “mOS, CBS High (1-2)” value ([2]; 2-marker CBS (IL-18BP, ANG-2)) of the same molecule?
Its value is 17.5 mo.

And the “mOS, CBS Low (0)” value ([2]; 2-marker CBS (IL-18BP, ANG-2))?
Its value is 11.4 mo.

And the “mOS, high CBS score (1-2)” value ([2]; 2-marker CBS (IL-18BP, ANG-2))?
The value was 17.5 months.

What about the “mOS, low CBS score (0)” value ([2]; 2-marker CBS (IL-18BP, ANG-2)) of the same molecule?
Its value is 11.4 months.

What about the “mOS, CBS High (3-5)” value [2, 5] of the same molecule?
Its value is 17.4 mo.

And the “mOS, CBS Low (0-2)” value [2, 5]?
The value was 15.0 mo.

What about the “mOS, high CBS score (3-5)” value [2, 5] of the same molecule?
Its value is 17.4 months.

And the “MST (median OS), FGF-21 High” value ([2]; baseline FGF-21 high, cutoff quantile 0.5 (median))?
The value was 19.5.

What about the “MST (median OS), FGF-21 Low” value ([2]; baseline FGF-21 low, cutoff quantile 0.5 (median)) of the same molecule?
The value was 15.3.

What about the “MST (median OS), ICAM-1 High” value ([2]; baseline ICAM-1 high, cutoff quantile 0.5 (median)) of the same molecule?
Its value is 18.5.

And the “MST (median OS), ICAM-1 Low” value ([2]; baseline ICAM-1 low, cutoff quantile 0.5 (median))?
Its value is 13.3.

What about the “MST (median OS), M-CSF High” value ([2]; baseline M-CSF high, cutoff quantile 0.5 (median)) of the same molecule?
The value was 15.4.

What about the “MST (median OS), M-CSF Low” value ([2]; baseline M-CSF low, cutoff quantile 0.5 (median)) of the same molecule?
The value was 17.2.

What about the “HR (95% CI) OS, FGF-21 low and high groups” value ([2]; cutoff quantile 0.5 (median)) of the same molecule?
Its value is 0.741.

What about the “HR (95% CI) OS, ICAM-1 low and high groups” value ([2]; cutoff quantile 0.5 (median)) of the same molecule?
The value was 0.66.

What about the “HR (95% CI) OS, M-CSF low and high groups” value ([2]; cutoff quantile 0.5 (median)) of the same molecule?
The value was 1.146.

What about the “HR (95% CI), baseline FGF-21 with OS” value ([2]; univariate Cox regression, HR per standard deviation of baseline serum FGF-21) of the same molecule?
The value was 0.996.

And the “HR (95% CI), baseline ICAM-1 with OS” value ([2]; univariate Cox regression, HR per standard deviation of baseline serum ICAM-1)?
The value was 1.017.

And the “HR (95% CI), baseline M-CSF with OS” value ([2]; univariate Cox regression, HR per standard deviation of baseline serum M-CSF)?
Its value is 1.366.

What about the “ORR, CBS High (1-2)” value ([3]; 2-marker CBS (IL-18BP, ANG-2)) of the same molecule?
Its value is 6.9%.

And the “ORR, CBS Low (0)” value ([3]; 2-marker CBS (IL-18BP, ANG-2))?
Its value is 0.0%.

And the “ORR, CBS High (3-5)” value [3, 4]?
Its value is 5.0%.

What about the “ORR, CBS Low (0-2)” value [3, 4] of the same molecule?
Its value is 4.2%.

What about the “ORR, CBS High (3-5)” value [3, 5] of the same molecule?
The value was 5.3%.

And the “ORR, CBS Low (0-2)” value [3, 5]?
The value was 4.0%.
